Test results published in patent US20100298141A1, “SUBSTITUTED PYRIDINE N-OXIDE HERBICIDES” (E. I. DU PONT DE NEMOURS AND COMPANY, priority 2007, published 2010).

Columns and labels:
Italian ryegrass = experiment: Test C pre-/postemergence test; assay type: in vivo, Lolium multiflorum
Procedure, shortened: (§1)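 Seeds were planted and treated preemergence with test chemical in a non-phytotoxic solvent mixture containing surfactant. Postemergence applications of the same formulation went onto plants 2 to 18 cm tall (1- to 4-leaf stage). A dash marks no test result.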

velvetleaf = experiment: Test C pre-/postemergence test; assay type: in vivo, Abutilon theophrasti
Procedure, shortened: as §1

crabgrass [1] = experiment: Test A pre-/postemergence greenhouse test; assay type: in vivo, Digitaria sanguinalis; conditions: for Crabgrass, Large plant response rating: 0 to 100 scale; for Plant response rating, Crabgrass, Large: 0 to 100 scale where 0 is no effect and 100 is complete control
Procedure, shortened: (§2)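 Pre: directed soil spray on seeded loam/sand. Post: foliar spray, plants 2–10 cm, 1–2 leaf stage, applied concurrently. Vehicle: non-phytotoxic solvent + surfactant. Greenhouse ~10 d; visual injury rating vs untreated controls.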

[2] = tested on: common (oilseed) sunflower; experiment: Test C pre-/postemergence test; assay type: in vivo, Helianthus annuus
Procedure, shortened: as §1

johnsongrass = experiment: Test C pre-/postemergence test; assay type: in vivo, Sorghum halepense; conditions: for Plant response rating (0 to 100), Johnsongrass: 250 g ai/ha
Procedure, shortened: as §1

eastern black nightshade = experiment: Test C pre-/postemergence test; assay type: in vivo, Solanum ptycanthum
Procedure, shortened: as §1

umbrella sedge = experiment: Test C flooded paddy test; assay type: in vivo, Cyperus difformis; conditions: Flood
Procedure, shortened: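 Visual injury ratings against untreated controls, taken 13 to 15 days after compound was added to paddy water standing 3 cm above the soil.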

corn [3] = experiment: Test A pre-/postemergence greenhouse test; assay type: in vivo, Zea mays; conditions: for Corn plant response rating: 0 to 100 scale; for Plant response rating, Corn: 0 to 100 scale where 0 is no effect and 100 is complete control
Procedure, shortened: as §2

Goosegrass = experiment: Test C pre-/postemergence test; assay type: in vivo, Eleusin indica; conditions: for Plant response rating (0 to 100), Goosegrass: 250 g ai/ha
Procedure, shortened: as §1

wheat = experiment: Test A pre-/postemergence greenhouse test; assay type: in vivo, Triticum aestivum; conditions: for Wheat plant response rating: 0 to 100 scale; for Plant response rating, Wheat: 0 to 100 scale where 0 is no effect and 100 is complete control
Procedure, shortened: as §2

barnyardgrass = experiment: Test A pre-/postemergence greenhouse test; assay type: in vivo, Echinochloa crus-galli; conditions: for Barnyardgrass plant response rating: 0 to 100 scale; for Plant response rating, Barnyardgrass: 0 to 100 scale where 0 is no effect and 100 is complete control
Procedure, shortened: as §2

crabgrass [4] = experiment: Test C pre-/postemergence test; assay type: in vivo, Digitaria sanguinalis; conditions: for Plant response rating (0 to 100), Crabgrass, Large: 250 g ai/ha
Procedure, shortened: as §1

morningglory = experiment: Test C pre-/postemergence test; assay type: in vivo, Ipomoea coccinea
Procedure, shortened: as §1

pigweed = experiment: Test C pre-/postemergence test; assay type: in vivo, Amaranthus retroflexus
Procedure, shortened: as §1

Surinam grass = experiment: Test C pre-/postemergence test; assay type: in vivo, Brachiaria decumbens
Procedure, shortened: as §1

corn [5] = experiment: Test C pre-/postemergence test; assay type: in vivo, Zea mays; conditions: for Plant response rating (0 to 100), Corn: 250 g ai/ha
Procedure, shortened: as §1

giant foxtail = experiment: Test C pre-/postemergence test; assay type: in vivo, Setaria faberii; conditions: for Plant response rating (0 to 100), Foxtail, Giant: 250 g ai/ha
Procedure, shortened: as §1

[6] = 31 g ai/ha, Preemergence, scale 0 to 100
[7] = preemergence, 125 g ai/ha, scale 0 (no effect) to 100 (complete control)
[8] = Postemergence, 125 g ai/ha, 0 is no effect, 100 is complete control
[9] = Postemergence, 500 g ai/ha, 0 is no effect, 100 is complete control
[10] = Preemergence, 125 g ai/ha, 0 no effect, 100 complete control
[11] = 31 g ai/ha, scale 0 to 100 (0 no effect, 100 complete control)
[12] = 62 g ai/ha, scale 0 to 100, 0 no effect, 100 complete control, 13 to 15 days
[13] = 125 g ai/ha, scale 0 to 100, 0 no effect, 100 complete control, 13 to 15 days
[14] = 62 g ai/ha, Preemergence, scale 0 to 100
[15] = Preemergence, 31 g ai/ha, scale 0 to 100 (0 no effect, 100 complete control)

Cn1nc(C(F)(F)F)c(CS(=O)(=O)c2cccc[n+]2[O-])c1Cl [Compound 9]
100: Crabgrass, Large plant response rating (crabgrass [1]; [10]) | Plant response rating, Crabgrass, Large (crabgrass [1]; Preemergence, 500 g ai/ha) | Plant response rating (0 to 100), Johnsongrass (johnsongrass; Preemergence) | Johnsongrass plant response rating (johnsongrass; [7]) | Nightshade plant response rating (eastern black nightshade; [7]) | Plant response rating, Sedge, Umbrella (umbrella sedge; 250 g ai/ha, scale 0 to 100 (0 no effect, 100 complete control)) | Goosegrass plant response rating (Goosegrass; [6]) | Plant response rating (0 to 100), Goosegrass (Goosegrass; Preemergence) | Goosegrass plant response rating (Goosegrass; [7]) | Barnyardgrass plant response rating (barnyardgrass; [10]) | Plant response rating, Barnyardgrass (barnyardgrass; Preemergence, 500 g ai/ha) | Crabgrass, Large plant response rating (crabgrass [4]; [6]) | Plant response rating (0 to 100), Crabgrass, Large (crabgrass [4]; Preemergence) | Crabgrass, Large plant response rating (crabgrass [4]; [7]) | Plant response rating (0 to 100), Morningglory (morningglory; Preemergence, 250 g ai/ha) | Pigweed plant response rating (pigweed; [6]) | Plant response rating (0 to 100), Pigweed (pigweed; Preemergence, 250 g ai/ha) | Pigweed plant response rating (pigweed; [7]) | Plant response rating (0 to 100), Surinam Grass (Surinam grass; Preemergence, 250 g ai/ha) | Plant response rating (0 to 100), Foxtail, Giant (giant foxtail; Preemergence) | Foxtail, Giant plant response rating (giant foxtail; [7])
50: Ryegrass, Italian plant response rating (Italian ryegrass; 62 g ai/ha, preemergence, scale 0 (no effect) to 100 (complete control)) | Wheat plant response rating (wheat; [10])
90: Crabgrass, Large plant response rating (crabgrass [1]; [9]) | Plant response rating, Sedge, Umbrella (umbrella sedge; [13]) | Morningglory plant response rating (morningglory; [7])
80: Crabgrass, Large plant response rating (crabgrass [1]; [8]) | Nightshade plant response rating (eastern black nightshade; [6]) | Barnyardgrass plant response rating (barnyardgrass; [8]) | Barnyardgrass plant response rating (barnyardgrass; [9])
98: Plant response rating (0 to 100), Corn (corn [5]; Preemergence) | Corn plant response rating (corn [5]; [7])
0: Ryegrass, Italian plant response rating (Italian ryegrass; [6]) | Velvetleaf plant response rating (velvetleaf; [7]) | Plant response rating, Sedge, Umbrella (umbrella sedge; [11]) | Morningglory plant response rating (morningglory; [6])
5: Sunflower plant response rating [2, 7]
20: Corn plant response rating (corn [3]; [8]) | Corn plant response rating (corn [5]; [6])
40: Plant response rating (0 to 100), Velvetleaf (velvetleaf; Preemergence, 250 g ai/ha) | Corn plant response rating (corn [3]; [10]) | Wheat plant response rating (wheat; [8])
70: Plant response rating (0 to 100), Sunflower ([2]; Preemergence, 250 g ai/ha) | Plant response rating, Wheat (wheat; Preemergence, 500 g ai/ha)
65: Plant response rating (0 to 100), Ryegrass, Italian (Italian ryegrass; Preemergence, 250 g ai/ha) | Ryegrass, Italian plant response rating (Italian ryegrass; [7])
85: Plant response rating, Sedge, Umbrella (umbrella sedge; [12]) | Surinam Grass plant response rating (Surinam grass; [7]) | Foxtail, Giant plant response rating (giant foxtail; [6])
60: Corn plant response rating (corn [3]; [9]) | Plant response rating, Corn (corn [3]; Preemergence, 500 g ai/ha) | Wheat plant response rating (wheat; [9])
45: Johnsongrass plant response rating (johnsongrass; [6])

Cc1cc[n+]([O-])c(S(=O)(=O)Cc2c(C(F)(F)F)nn(C)c2OCC(F)(F)F)c1 [Compound 31]
60: Ryegrass, Italian plant response rating (Italian ryegrass; [14]) | Wheat plant response rating (wheat; [9]) | Wheat plant response rating (wheat; [10])
90: Crabgrass, Large plant response rating (crabgrass [1]; [10]) | Barnyardgrass plant response rating (barnyardgrass; [9])
70: Crabgrass, Large plant response rating (crabgrass [1]; [8]) | Barnyardgrass plant response rating (barnyardgrass; [8])
0: Corn plant response rating (corn [3]; [10]) | Plant response rating, Corn (corn [5]; [15])
50: Plant response rating, Corn (corn [3]; Preemergence, 500 g ai/ha) | Wheat plant response rating (wheat; [8]) | Corn plant response rating (corn [5]; [14])
98: Plant response rating (0 to 100), Corn (corn [5]; Preemergence)
85: Plant response rating, Sedge, Umbrella (umbrella sedge; [12]) | Plant response rating, Morningglory (morningglory; [15]) | Plant response rating, Surinam Grass (Surinam grass; [15]) | Corn plant response rating (corn [5]; [7])
100: Velvetleaf plant response rating (velvetleaf; [14]) | Plant response rating, Crabgrass, Large (crabgrass [1]; Preemergence, 500 g ai/ha) | Johnsongrass plant response rating (johnsongrass; [14]) | Plant response rating, Johnsongrass (johnsongrass; [15]) | Plant response rating (0 to 100), Johnsongrass (johnsongrass; Preemergence) | Plant response rating, Sedge, Umbrella (umbrella sedge; [13]) | Plant response rating, Sedge, Umbrella (umbrella sedge; 250 g ai/ha, scale 0 to 100, 0 no effect, 100 complete control, 13 to 15 days) | Goosegrass plant response rating (Goosegrass; [14]) | Plant response rating, Goosegrass (Goosegrass; [15]) | Plant response rating (0 to 100), Goosegrass (Goosegrass; Preemergence) | Barnyardgrass plant response rating (barnyardgrass; [10]) | Plant response rating, Barnyardgrass (barnyardgrass; Preemergence, 500 g ai/ha) | Crabgrass, Large plant response rating (crabgrass [4]; [14]) | Plant response rating, Crabgrass, Large (crabgrass [4]; [15]) | Plant response rating (0 to 100), Crabgrass, Large (crabgrass [4]; Preemergence) | Morningglory plant response rating (morningglory; [14]) | Pigweed plant response rating (pigweed; [14]) | Plant response rating, Pigweed (pigweed; [15]) | Surinam Grass plant response rating (Surinam grass; [14]) | Foxtail, Giant plant response rating (giant foxtail; [14]) | Plant response rating, Foxtail, Giant (giant foxtail; [15]) | Plant response rating (0 to 100), Foxtail, Giant (giant foxtail; Preemergence)
95: Nightshade plant response rating (eastern black nightshade; [14]) | Plant response rating, Nightshade (eastern black nightshade; [15])
80: Crabgrass, Large plant response rating (crabgrass [1]; [9]) | Plant response rating, Wheat (wheat; Preemergence, 500 g ai/ha)
20: Sunflower plant response rating [2, 14] | Plant response rating, Sunflower [2, 15]
55: Plant response rating, Velvetleaf (velvetleaf; [15])
65: Plant response rating, Sedge, Umbrella (umbrella sedge; [11])
40: Plant response rating, Ryegrass, Italian (Italian ryegrass; [15]) | Corn plant response rating (corn [3]; [8]) | Corn plant response rating (corn [3]; [9])
